Assay results as given in patent publication US20160058060A1, “FOOD SALT PRODUCT” (SMART SALT INC, priority 2013, published 2016).
Where two headings read alike, the source gives them in different places.

Key:
[1] = cited from earlier work
[2] = tested on: L. monocytogenes; test: Microbial growth/survival of L. monocytogenes in frankfurter samples; format: cell-based; conditions: equal dosage levels, storage 5° C., no nitrites
Procedure: No nitrites were added to the samples. […] The frankfurters were subject to sensory testing.

[3] = tested on: B. cereus and B. subtilis; test: Bacillus spp. counts in inoculated bread post baking; format: cell-based; conditions: salt level 1.2% w/w, immediately post baking and after cooling
Procedure: (§1) A salt sample according to Example 7 of the invention was used to test the microbial growth in bread. […] Inoculated and uninoculated loaves (controls) were microbiologically analyzed over 6 days storage at 21° C. and 25° C. Analysis was carried out on day 0 (post baking and after cooling), day 1, day 2 and day 6. The results highlighted two main differences between the two salt types.

[4] = tested on: total aerobic viable counts; test: Total aerobic viable counts in un-inoculated control bread during storage; format: cell-based; conditions: end of storage (Day 6), both storage temperatures (21° C. and 25° C.)
Procedure: as §1, with “Analysis was carried out on day 0 (post baking and after cooling), day 1, day 2 and day 6.” left out

[5] = aqueous solution; cited from earlier work

[Cl-].[K+] [KCl, potassium chloride]
Aqueous solubility ([1]; Temperature 0 °C): 21.74 mass-% of solute | Aqueous solubility ([1]; Temperature 20 °C): 25.39 mass-% of solute | Aqueous solubility ([1]; Temperature 40 °C): 28.59 mass-% of solute | Aqueous solubility ([1]; Temperature 60 °C): 31.40 mass-% of solute | Aqueous solubility ([1]; Temperature 80 °C): 33.86 mass-% of solute | Aqueous solubility ([1]; Temperature 100 °C): 36.05 mass-% of solute

[Cl-].[Na+] [NaCl, sodium chloride]
storage time until increase of L. monocytogenes to a count of 4 Log [2]: 23 days | log drop in Bacillus spp. counts [3]: up to 3.4 Log | total aerobic viable counts [4]: 10^4-10^5 cfu/g

[Cl-].[Cl-].[Mg+2] [MgCl2, magnesium chloride]
stability constant [5]: zero
